19 compounds from patent US20230203041A1, “ANTAGONISTS OF THE ADENOSINE A2A RECEPTOR” (AdoRx Therapeutics Limited, priority 2020, published 2023) can be followed below.

The structures appear in SMILES notation.

In general, Ki refers to a measure of affinity in units of concentration, obtained from inhibition or displacement. A higher Ki goes with lower affinity. Usually IC50 stands for the concentration needed to halve the response being measured.

Experiment [1] concerns the target T1, human Adenosine A1 receptor (Homo sapiens, UniProt P30542).
T1 sequence (P30542 1-326): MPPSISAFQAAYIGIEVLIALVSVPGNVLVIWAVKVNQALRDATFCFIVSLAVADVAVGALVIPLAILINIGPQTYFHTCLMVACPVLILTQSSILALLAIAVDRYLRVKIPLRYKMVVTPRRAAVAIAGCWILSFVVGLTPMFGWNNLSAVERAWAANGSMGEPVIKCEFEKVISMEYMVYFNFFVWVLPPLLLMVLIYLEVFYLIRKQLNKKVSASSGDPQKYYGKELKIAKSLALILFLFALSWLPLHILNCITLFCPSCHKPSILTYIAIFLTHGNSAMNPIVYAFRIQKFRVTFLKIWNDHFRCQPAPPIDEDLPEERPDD
The experiment is described as follows: Adenosine receptor TR-FRET binding assay (CA200645 displacement), A1.

The test system of experiment [2] is CD8+ T cells in human whole blood. The experiment is described as follows: Measurement of pCREB in CD8+ T cells in human whole blood. The format is cell-based. The settings on record: T-cell, 1 h; heparinised human whole blood, rolipram, 3 μM NECA, 60 min, phospho-CREB in CD8+ T cells by FACS. The procedure: Heparinised human whole blood was pre-incubated at 37° C. with serial dilutions of A2a antagonists for 20 min. and the phosphodiesterase inhibitor rolipram to amplify the pCREB response. The adenosine receptor agonist NECA is then added at a final concentration of 3 μM and following a 60 min incubation the blood is fixed and red blood cells lysed. White blood cells are isolated, permeabilized and stained with directly conjugated fluorescent antibodies to phospho-CREB (Alexa Fluor 488) and CD8 (Alexa Fluor 647) and the level of phospho-CREB in CD8+ T cells is measured by FACS using a BD Accuri C6 Flow Cytometer.
Background: In flow cytometry, cells or beads pass a laser one at a time.

A further experiment deals with human PBMCs. The experiment is described as follows: CD3/CD28 stimulated IL-2 release NECA reversal assay in human PBMCs.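 Also: dose-response as % inhibition where 100% equals no-NECA control wells with CD3/CD28.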 It is filed as cell-based. Particulars: PBMC, CD3/CD28 antibody stimulated, 1 uM NECA, 24 hours, IL-2 in culture supernatant. How it is done: Blood is drawn from healthy volunteers using sodium citrate as the anticoagulant (0.3% final concentration). After centrifugation of the blood over Histopaque-1077, PBMCs are collected from the Histopaque/plasma interface and washed twice in PBS (300 g for 10 mins at room temp). Cells are plated at 50,000 cells/well in 150 μl RPMI/10% FCS in 96-well cell culture plates that have been precoated with 1 ug/ml CD3 antibody. 50 μl diluted compound mix is added to the cells, to obtain final concentrations of 1 ug/ml CD28 antibody, 1 uM NECA and 0.003-10 μM adenosine receptor antagonist. Assay plates are incubated for 24 hours at 37° C. in a humidified incubator. Culture supernatant is tested for IL-2 levels using the human IL-2 Tissue Culture Kit (Meso Scale Discovery).

Experiment [3] deals with T2, human Adenosine A2b receptor (Homo sapiens, UniProt P29275).
T2 construct: expressed in transfected cells; host or cells: CHO cell membranes
T2 sequence (P29275 1-332): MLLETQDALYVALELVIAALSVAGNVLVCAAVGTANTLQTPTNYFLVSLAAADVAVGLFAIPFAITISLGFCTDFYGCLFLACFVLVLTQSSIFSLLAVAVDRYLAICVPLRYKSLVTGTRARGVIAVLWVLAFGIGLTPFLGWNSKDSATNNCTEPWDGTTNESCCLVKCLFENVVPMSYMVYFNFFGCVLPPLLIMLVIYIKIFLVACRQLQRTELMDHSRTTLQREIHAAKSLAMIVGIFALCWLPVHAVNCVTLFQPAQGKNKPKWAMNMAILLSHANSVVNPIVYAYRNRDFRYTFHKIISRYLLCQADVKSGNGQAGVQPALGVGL
The experiment is described as follows: Adenosine receptor TR-FRET binding assay (CA200645 displacement), A2b. The settings on record: 30 nM CA200645, CHO cell membranes, 2 hours at room temperature.

For experiment [4], the target named is T3, human Adenosine A2a receptor (Homo sapiens, UniProt P29274).
T3 construct: expressed in transfected cells; host or cells: CHO cell membranes
T3 sequence (P29274 whole entry): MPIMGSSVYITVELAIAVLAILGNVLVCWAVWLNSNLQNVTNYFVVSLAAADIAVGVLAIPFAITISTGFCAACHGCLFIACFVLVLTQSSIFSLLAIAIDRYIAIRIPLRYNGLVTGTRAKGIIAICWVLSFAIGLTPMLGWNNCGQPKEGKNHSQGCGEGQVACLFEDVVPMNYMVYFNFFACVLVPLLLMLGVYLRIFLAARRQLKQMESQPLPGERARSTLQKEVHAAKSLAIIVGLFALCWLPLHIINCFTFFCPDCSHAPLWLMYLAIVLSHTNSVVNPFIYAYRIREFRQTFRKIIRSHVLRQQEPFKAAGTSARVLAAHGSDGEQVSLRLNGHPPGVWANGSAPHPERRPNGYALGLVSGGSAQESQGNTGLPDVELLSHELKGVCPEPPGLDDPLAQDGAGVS
The experiment is described as follows: Adenosine receptor TR-FRET binding assay (CA200645 displacement), A2a. Particulars: 100 nM CA200645, CHO cell membranes, 2 hours at room temperature. Background: In TR-FRET formats the signal depends on donor and acceptor labels being close together.

Experiment [5] has as its target T4, human Adenosine A3 receptor (Homo sapiens, UniProt P0DMS8).
T4 sequence (P0DMS8 1-318): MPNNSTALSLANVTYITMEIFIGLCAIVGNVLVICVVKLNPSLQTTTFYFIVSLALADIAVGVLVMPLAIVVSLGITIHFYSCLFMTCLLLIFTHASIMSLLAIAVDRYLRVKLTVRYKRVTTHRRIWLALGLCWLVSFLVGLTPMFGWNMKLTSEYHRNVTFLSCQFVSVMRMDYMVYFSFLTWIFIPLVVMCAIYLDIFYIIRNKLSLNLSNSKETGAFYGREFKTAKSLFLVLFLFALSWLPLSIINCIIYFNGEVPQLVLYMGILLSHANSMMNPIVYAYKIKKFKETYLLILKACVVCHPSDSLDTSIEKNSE
The experiment is described as follows: Adenosine receptor TR-FRET binding assay (CA200645 displacement), A3.

For `N#Cc1cccc(-c2nn3ccc(N)nc3c2-c2ccncc2)c1` [Example 1, 3-[5-Amino-3-(4-pyridyl)pyrazolo[1,5-a]pyrimidin-2-yl]benzonitrile], the Ki in experiment [1] was 3 nM; in experiment [3], 2 nM; in experiment [4], 2.1 nM. Moreover, the values for the half-inhibitory concentration (IC50) (in experiment [2]; with human PBMCs) were 2010 nM and 305 nM, respectively.
As for `Cc1cc(-c2c(-c3cccc(C#N)c3)nn3ccc(N)nc23)cc(Cl)n1` [Example 1.4, 3-[5-Amino-3-(2-chloro-6-methyl-4-pyridyl)pyrazolo[1,5-a]pyrimidin-2-yl]benzonitrile], the Ki in experiment [5] is more than 1000 nM; in experiment [1], 66 nM; in experiment [3], 4 nM; in experiment [4], 2.6 nM. The 50% inhibitory concentration (IC50) is 590 nM in experiment [2] and 37 nM in the experiment with human PBMCs.
Regarding `Cc1cc(-c2c(-c3cccc(C#N)c3)nn3ccc(N)nc23)cc(C)n1` [Example 1.6, 3-[5-amino-3-(2,6-dimethyl-4-pyridyl)pyrazolo[1,5-a]pyrimidin-2-yl]benzonitrile], the Ki is more than 1000 nM in experiment [5], 37 nM in experiment [1], 9 nM in experiment [3] and 2.2 nM in experiment [4]. In addition, the IC50 in experiment [2] amounted to 250 nM; in the experiment on human PBMCs it was 57 nM.
Take `Cc1cc(-c2c(-c3cccc(C#N)c3)nn3ccc(NCC(C)(C)O)nc23)cc(Cl)n1` [Example 2, 3-[3-(2-Chloro-6-methyl-4-pyridyl)-5-[(2-hydroxy-2-methyl-propyl)amino]pyrazolo[1,5-a]pyrimidin-2-yl]benzonitrile]: the Ki is more than 1000 nM in experiment [5], 366 nM in experiment [1], 67 nM in experiment [3] and 3.9 nM in experiment [4]. The half-inhibitory concentration (IC50) is 420 nM in experiment [2] and 84 nM with human PBMCs.
As for `Cc1cc(-c2c(-c3cccc(C#N)c3)nn3ccc(NC45CC(O)(C4)C5)nc23)cc(Cl)n1` [Example 2.1], the Ki in experiment [5] was more than 1000 nM; in experiment [1], 21 nM; in experiment [3] it was 3 nM; in experiment [4], 0.4 nM. Also, the values for the IC50 (in experiment [2]; with human PBMCs) were 1440 nM and 12 nM, respectively.
In the case of `Cc1cc(-c2c(-c3cccc(C#N)c3)nn3ccc(N4CCOC[C@H]4C(=O)O)nc23)cc(Cl)n1` [Example 2.3], the Ki in experiment [5] worked out at 1280 nM; in experiment [1] it was 21 nM; in experiment [3], 4 nM; in experiment [4], 0.6 nM. The figures for the concentration for half-maximal inhibition (IC50) (in experiment [2]; in the experiment on human PBMCs) were 1250 nM and 12 nM, respectively.
For the compound `CCN1CCC(Nc2ccn3nc(-c4cccc(C#N)c4)c(-c4cc(C)nc(Cl)c4)c3n2)CC1` [Example 2.4], the Ki was more than 1000 nM in experiment [5], 53 nM in experiment [1], 2 nM in experiment [3] and 0.7 nM in experiment [4]. For the same compound, the IC50 turned out to be 2820 nM in experiment [2] and 32 nM in the experiment with human PBMCs.
Regarding `Cc1cc(-c2c(-c3cccc(C#N)c3)nn3ccc(NCC4(O)COC4)nc23)cc(Cl)n1` [Example 2.8], the Ki was more than 1000 nM in experiment [5], 62 nM in experiment [1], 3 nM in experiment [3] and 1.3 nM in experiment [4]. The IC50 in experiment [2] was 610 nM; in the experiment with human PBMCs, 41 nM.
`Cc1cc(-c2c(-c3cccc(C#N)c3)nn3ccc(NCCC(C)(C)O)nc23)cc(Cl)n1` [Example 2.9]: the Ki was more than 1000 nM in experiment [5], 31 nM in experiment [1], 19 nM in experiment [3] and 1.4 nM in experiment [4]. The IC50 in experiment [2] came out at 70 nM; in the experiment on human PBMCs, 19 nM.
With `Cc1cc(-c2c(-c3cccc(C#N)c3)nn3ccc(N[C@H]4C[C@@H](O)C4)nc23)cc(Cl)n1` [Example 2.10], the inhibition constant Ki came out at 1550 nM in experiment [5], 119 nM in experiment [1], 10 nM in experiment [3] and 1.4 nM in experiment [4]. For the same compound, the concentration for half-maximal inhibition (IC50) in experiment [2] was determined as 1190 nM; with human PBMCs, 48 nM.
For the compound `Cc1cc(-c2c(-c3cccc(C#N)c3)nn3ccc(NC4CCN(S(C)(=O)=O)CC4)nc23)cc(Cl)n1` [Example 2.11], the Ki in experiment [5] was more than 1000 nM; in experiment [1], 176 nM; in experiment [3] it was 34 nM; in experiment [4], 1.5 nM. The IC50 in experiment [2] worked out at 1330 nM; in the experiment on human PBMCs it was 5 nM.
For `Cc1cc(-c2c(-c3cccc(C#N)c3)nn3ccc(N4CC5CCC(C4)O5)nc23)cc(Cl)n1` [Example 2.12], the Ki was found to be 2330 nM in experiment [5], 87 nM in experiment [1], 22 nM in experiment [3] and 1.5 nM in experiment [4]. Further, the half-maximal inhibitory concentration (IC50) worked out at 4190 nM in experiment [2] and 32 nM in the experiment with human PBMCs.
On to `Cc1cc(-c2c(-c3cccc(C#N)c3)nn3ccc(N[C@@H](C)C(C)(C)O)nc23)cc(Cl)n1` [Example 2.15], for which the Ki in experiment [5] was more than 1000 nM; in experiment [1] it was 896 nM; in experiment [3], 239 nM; in experiment [4] it was 2 nM. Moreover, the IC50 came out at 920 nM in experiment [2] and 59 nM in the experiment with human PBMCs.
As for `Cc1cc(-c2c(-c3cccc(C#N)c3)nn3ccc(N[C@@H]4COC[C@@H]4O)nc23)cc(Cl)n1` [Example 2.16], the Ki is more than 1000 nM in experiment [5], 232 nM in experiment [1], 4 nM in experiment [3] and 2.1 nM in experiment [4]. Besides, the figures for the IC50 (in experiment [2]; in the experiment on human PBMCs) were 390 nM and 7 nM, respectively.
As for `Cc1cc(-c2c(-c3cccc(C#N)c3)nn3ccc(N[C@H]4C[C@H](O)C4)nc23)cc(Cl)n1` [Example 2.18], the Ki in experiment [5] came out at 2430 nM; in experiment [1] it was 192 nM; in experiment [3], 10 nM; in experiment [4], 2.6 nM. The IC50 in experiment [2] was found to be 1870 nM; with human PBMCs, 46 nM.
Regarding `Cc1cc(-c2c(-c3cccc(C#N)c3)nn3ccc(N[C@H](C)C(C)(C)O)nc23)cc(Cl)n1` [Example 2.20], the Ki in experiment [5] was more than 1000 nM; in experiment [1] it was 263 nM; in experiment [3], 18 nM; in experiment [4], 3.4 nM. Besides, the results for the IC50 (in experiment [2]; in the experiment with human PBMCs) were 660 nM and 68 nM, respectively.
Regarding `Cc1cc(-c2c(-c3cccc(C#N)c3)nn3ccc(N4CCOC(CCN(C)C)C4)nc23)cc(Cl)n1` (stereo not shown) [Example 2.21], the inhibition constant (Ki) was more than 1000 nM in experiment [5], 178 nM in experiment [1], 19 nM in experiment [3] and 4.6 nM in experiment [4]. Also, the IC50 in experiment [2] came to 1240 nM; with human PBMCs, 31 nM.
Consider `Cc1cc(-c2c(-c3cccc(C#N)c3)nn3ccc(NCc4nnc[nH]4)nc23)cc(Cl)n1` [Example 2.23], for which the Ki in experiment [5] was more than 1000 nM; in experiment [1], 55 nM; in experiment [3] it was 3 nM; in experiment [4], 6.4 nM. In addition, the IC50 in experiment [2] was determined as 570 nM; with human PBMCs, 24 nM.
Turning to `Cc1cc(-c2c(-c3cccc(C#N)c3)nn3ccc(N4CCO[C@@H](C(=O)O)C4)nc23)cc(Cl)n1` [Example 2.24], the Ki in experiment [1] was found to be 255 nM; in experiment [3], 58 nM; in experiment [4], 6.9 nM. The concentration for half-maximal inhibition (IC50) in experiment [2] worked out at 2760 nM; in the experiment with human PBMCs, 92 nM.
